In US8865967B2 (priority 2010, dated 2014):

Experiments:
Diplodia maydis (DMA) = type: cell-based; conditions: for IC50 (ppm) High Salt Dma: high salt: 1/2x liquid media plus 1 mM calcium chloride, 50 mM potassium chloride
[1] = tested on: Fusarium verticillioides (FVE); type: cell-based
[2] = tested on: Colletotrichum graminicola (CGR; isolate Carroll-IA-99); type: cell-based; conditions: for Antifungal activity (IC50 in ppm) against C. graminicola under high salt conditions: Table 2; for IC50 (ppm) High Salt Cgr: high salt: 1/2x liquid media plus 1 mM calcium chloride, 50 mM potassium chloride, Table 1; for IC50 (ppm) Low Salt Cgr: low salt: 1/8x Czapek-Dox broth plus 0.25 mM calcium chloride, 12.5 mM potassium chloride
[3] = tested on: Fusarium graminearum (FGR; isolate 73B ISU); type: cell-based; conditions: for IC50 (ppm) High Salt Fgr: high salt: 1/2x liquid media plus 1 mM calcium chloride, 50 mM potassium chloride; for IC50 (ppm) Low Salt Fgr: low salt: 1/8x potato dextrose broth plus 0.25 mM calcium chloride, 12.5 mM potassium chloride
C. graminicola = assay: Invasion of leaf sheaths of transgenic maize by C. graminicola; type: in vivo, Colletotrichum graminicola; conditions: greenhouse, T0 V5-stage maize
Method: The leaf sheaths of leaf 4 or 5 of T0 plants at the V5 stage were inoculated with 50 μL of 5×10^6 spores/mL after wounding the leaf sheath on both sides of the midrib about half way between edge and midrib with a small screwdriver. The leaf sheath was covered with plastic wrap for 5 days. Nine days after inoculation the area of lesions was measured.

| Substance | IC50 (ppm) High Salt Dma (Diplodia maydis (DMA)) [ppm] | IC50 (ppm) High Salt Fve [1] [ppm] | Antifungal activity (IC50 in ppm) against C. graminicola under high salt conditions [2] [ppm] | IC50 (ppm) High Salt Cgr [2] [ppm] | IC50 (ppm) Low Salt Cgr [2] [ppm] | IC50 (ppm) High Salt Fgr [3] [ppm] | IC50 (ppm) Low Salt Fgr [3] [ppm] | relation of protein level to disease development (C. graminicola; leaf sheath invasion by CGR) | invasion of leaf sheaths by CGR compared to empty vector controls (C. graminicola; protein accumulated in endoplasmic reticulum, two transformation constructs) | IC50 (ppm) Low Salt Dma (Diplodia maydis (DMA); low salt: 1/8x potato dextrose broth plus 0.25 mM calcium chloride, 12.5 mM potassium chloride) [ppm] | IC50 (ppm) Low Salt Fve [1] [ppm] |
| --- | --- | --- | --- | --- | --- | --- | --- | --- | --- | --- | --- |
| Pp-PDF1-1C-7A4: Pp-PDF1 variant from first shuffling round (RVCEKPSKFFKGLCGSDRDCTNACRKEGLATGECQSKGFFNSVCVCKKPC; Synthetic sequence obtained from DNA shuffling of a plant sequence.) | 50 | >200 | 5 | 5 | 0.1 | 20 | 4.7 | correlated inversely with disease development | significantly improved events |  |  |
| Pp-PDF1: Picramnia pentandra plant defensin, parent polypeptide used in the DNA shuffling (KVCTKPSKFFKGLCGADRDCTVACKKEGLATGFCQKKGFFNFVCVCRKPC; listed as Picramnia pentandra) [reference compound] | 50 | 50 | 15 | 15 | 3 | 5 | 2 |  |  | 7.5 | 2 |
